From the supplement of paper PMC4862054

The compounds below were run on HDQ-P1 (assay: normalised viability (% of control), CellTiter-Blue; higher = more viable cells (about 100 = DMSO control)). Settings: 300 nM; incubation time: 72 h.
How it was run: (§1)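 Vehicle (100) and a positive kill control (0) anchored the normalisation of each plate, and Z'-factor was used for quality control. Breast cancer cell lines in 20 µl suspension were incubated 72 h over compound in 5 µl medium in 384-well plates, followed by CellTiter-Blue at 560/590 nm. The value is normalised viability at a single listed concentration of the series.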

| Compound | normalised viability |
| --- | --- |
| NCCCNCCSP(=O)(O)O [Amifostine] | 63.9% |
| C[C@H]1C[C@@H]2[C@H]([C@@H](O)C[C@@]3(C)[C@H]2CC[C@]3(O)C(=O)CO)[C@@]2(C)C=CC(=O)C=C12 [Methylprednisolone] | 74.6% |
| CCc1cncnc1N1CCN(Cc2nc3ccc(C(F)(F)F)cc3[nH]2)CC1 | 105% |
| Oc1ncc(N(CCCl)CCCl)c(O)n1 [Uracil mustard] | 94.8% |
| CC1=C(/C=C/C(C)=C/C=C/C(C)=C/C(=O)O)C(C)(C)CCC1 [Tretinoin] | 94.9% |

The compounds below were run on HCC1937 in the same assay as above. Settings: 1 nM; incubation time: 72 h.
How it was run: as §1

| Compound | normalised viability |
| --- | --- |
| COc1cc2c(Oc3ccc4[nH]c(C)cc4c3F)ncnc2cc1OCCCN1CCCC1 [Cediranib] | 66.2% |
| C=CC(=O)N1CCC[C@@H](n2nc(-c3ccc(Oc4ccccc4)cc3)c3c(N)ncnc32)C1 | 94.8% |
| Cc1cnc(NC(=O)Nc2cc(Br)c(C)cc2OC[C@@H]2CNCCO2)cn1 | 108% |

Same assay, conditions: 10 nM; incubation time: 72 h

| Compound | normalised viability |
| --- | --- |
| Nc1nc(F)nc2c1ncn2[C@@H]1O[C@H](CO)[C@@H](O)[C@@H]1O [Fludarabine] | 97.5% |
| O=C(O)C1(C(=O)O)CCC1.[NH2-].[NH2-].[Pt+2] [Carboplatin] | 82.3% |
| N#Cc1ccc(C(c2ccc(C#N)cc2)n2cncn2)cc1 [Letrozole] | 81.8% |
| C1CN1c1nc(N2CC2)nc(N2CC2)n1 [Triethylenemelamine] | 86.2% |
| CCCS(=O)(=O)Nc1ccc(F)c(C(=O)c2c[nH]c3ncc(-c4ccc(Cl)cc4)cc23)c1F [Vemurafenib] | 109% |
| O=C(O)C(=O)O.[NH-][C@@H]1CCCC[C@H]1[NH-].[Pt+2] [Oxaliplatin] | 90.7% |
| Cc1ccc(-c2cc(C(F)(F)F)nn2-c2ccc(S(N)(=O)=O)cc2)cc1 [Celecoxib] | 85.3% |
| NCCCNCCSP(=O)(O)O [Amifostine] | 79.2% |
| C[C@H]1C[C@@H]2[C@H]([C@@H](O)C[C@@]3(C)[C@H]2CC[C@]3(O)C(=O)CO)[C@@]2(C)C=CC(=O)C=C12 [Methylprednisolone] | 80.2% |
| CCc1cncnc1N1CCN(Cc2nc3ccc(C(F)(F)F)cc3[nH]2)CC1 | 108% |
| Oc1ncc(N(CCCl)CCCl)c(O)n1 [Uracil mustard] | 143% |
| CC1=C(/C=C/C(C)=C/C=C/C(C)=C/C(=O)O)C(C)(C)CCC1 [Tretinoin] | 106% |

Same assay, conditions: 100 nM; incubation time: 72 h

| Compound | normalised viability |
| --- | --- |
| COc1cc2c(Oc3ccc4[nH]c(C)cc4c3F)ncnc2cc1OCCCN1CCCC1 [Cediranib] | 78.5% |
| C=CC(=O)N1CCC[C@@H](n2nc(-c3ccc(Oc4ccccc4)cc3)c3c(N)ncnc32)C1 | 101% |
| Cc1cnc(NC(=O)Nc2cc(Br)c(C)cc2OC[C@@H]2CNCCO2)cn1 | 80.7% |

Same assay, conditions: 1000 nM; incubation time: 72 h

| Compound | normalised viability |
| --- | --- |
| Nc1nc(F)nc2c1ncn2[C@@H]1O[C@H](CO)[C@@H](O)[C@@H]1O [Fludarabine] | 84.8% |
| O=C(O)C1(C(=O)O)CCC1.[NH2-].[NH2-].[Pt+2] [Carboplatin] | 103% |
| N#Cc1ccc(C(c2ccc(C#N)cc2)n2cncn2)cc1 [Letrozole] | 82.6% |
| C1CN1c1nc(N2CC2)nc(N2CC2)n1 [Triethylenemelamine] | 72% |
| CCCS(=O)(=O)Nc1ccc(F)c(C(=O)c2c[nH]c3ncc(-c4ccc(Cl)cc4)cc23)c1F [Vemurafenib] | 101% |
| O=C(O)C(=O)O.[NH-][C@@H]1CCCC[C@H]1[NH-].[Pt+2] [Oxaliplatin] | 82.2% |
| Cc1ccc(-c2cc(C(F)(F)F)nn2-c2ccc(S(N)(=O)=O)cc2)cc1 [Celecoxib] | 80.3% |
| NCCCNCCSP(=O)(O)O [Amifostine] | 95% |
| COc1cc2c(Oc3ccc4[nH]c(C)cc4c3F)ncnc2cc1OCCCN1CCCC1 [Cediranib] | 83.4% |
| C[C@H]1C[C@@H]2[C@H]([C@@H](O)C[C@@]3(C)[C@H]2CC[C@]3(O)C(=O)CO)[C@@]2(C)C=CC(=O)C=C12 [Methylprednisolone] | 106% |
| CCc1cncnc1N1CCN(Cc2nc3ccc(C(F)(F)F)cc3[nH]2)CC1 | 107% |
| C=CC(=O)N1CCC[C@@H](n2nc(-c3ccc(Oc4ccccc4)cc3)c3c(N)ncnc32)C1 | 89.7% |
| Oc1ncc(N(CCCl)CCCl)c(O)n1 [Uracil mustard] | 82.4% |
| Cc1cnc(NC(=O)Nc2cc(Br)c(C)cc2OC[C@@H]2CNCCO2)cn1 | 50.6% |
| CC1=C(/C=C/C(C)=C/C=C/C(C)=C/C(=O)O)C(C)(C)CCC1 [Tretinoin] | 80.6% |

Same assay, conditions: 10000 nM; incubation time: 72 h

| Compound | normalised viability |
| --- | --- |
| Nc1nc(F)nc2c1ncn2[C@@H]1O[C@H](CO)[C@@H](O)[C@@H]1O [Fludarabine] | 54.5% |
| O=C(O)C1(C(=O)O)CCC1.[NH2-].[NH2-].[Pt+2] [Carboplatin] | 54.2% |
| N#Cc1ccc(C(c2ccc(C#N)cc2)n2cncn2)cc1 [Letrozole] | 82% |
| C1CN1c1nc(N2CC2)nc(N2CC2)n1 [Triethylenemelamine] | 75.3% |
| CCCS(=O)(=O)Nc1ccc(F)c(C(=O)c2c[nH]c3ncc(-c4ccc(Cl)cc4)cc23)c1F [Vemurafenib] | 67.7% |
| O=C(O)C(=O)O.[NH-][C@@H]1CCCC[C@H]1[NH-].[Pt+2] [Oxaliplatin] | 33.9% |
| Cc1ccc(-c2cc(C(F)(F)F)nn2-c2ccc(S(N)(=O)=O)cc2)cc1 [Celecoxib] | 79.4% |
| NCCCNCCSP(=O)(O)O [Amifostine] | 89.5% |
| C[C@H]1C[C@@H]2[C@H]([C@@H](O)C[C@@]3(C)[C@H]2CC[C@]3(O)C(=O)CO)[C@@]2(C)C=CC(=O)C=C12 [Methylprednisolone] | 80.4% |
| CCc1cncnc1N1CCN(Cc2nc3ccc(C(F)(F)F)cc3[nH]2)CC1 | 86.8% |
| Oc1ncc(N(CCCl)CCCl)c(O)n1 [Uracil mustard] | 66.7% |
| CC1=C(/C=C/C(C)=C/C=C/C(C)=C/C(=O)O)C(C)(C)CCC1 [Tretinoin] | 88.1% |

The compounds below were run on MFM-223 in the same assay as above. Settings: 1 nM; incubation time: 72 h.
How it was run: as §1

| Compound | normalised viability |
| --- | --- |
| COc1cc2c(Oc3ccc4[nH]c(C)cc4c3F)ncnc2cc1OCCCN1CCCC1 [Cediranib] | 99.9% |
| C=CC(=O)N1CCC[C@@H](n2nc(-c3ccc(Oc4ccccc4)cc3)c3c(N)ncnc32)C1 | 92.1% |
| Cc1cnc(NC(=O)Nc2cc(Br)c(C)cc2OC[C@@H]2CNCCO2)cn1 | 104% |

Same assay, conditions: 10 nM; incubation time: 72 h

| Compound | normalised viability |
| --- | --- |
| Nc1nc(F)nc2c1ncn2[C@@H]1O[C@H](CO)[C@@H](O)[C@@H]1O [Fludarabine] | 101% |
| O=C(O)C1(C(=O)O)CCC1.[NH2-].[NH2-].[Pt+2] [Carboplatin] | 86% |
